Laboratory results taken from patent publication US7897591B2, “Method of treating fatty liver disease” (priority 2005, dated 2011).

What was measured:
C57BL/6 mice [1] = assay: Serum liver function tests (AP, ALT, total and direct bilirubin) in HCD mouse model; assay type: in vivo
Protocol: Experiments were performed on 5-6 week-old C57BL/6 mice (Jackson Laboratories, Bar Harbor, Me.). The animals, in groups of five, were housed in a barrier room and were acclimated to their environment for at least 72 hours prior to the initiation of each experiment. Animal protocols complied with the NIH Animal Research Advisory Committee guidelines and were approved by the Children's Hospital Boston Animal Care and Use Committee. Control animals (n=5) received normal chow and water ad libitum. All animals in the experimental groups were fed a fat-free, high carbohydrate liquid diet (HCD) ad libitum placed in one bottle per cage as previously described (3, 62). No additional sources of nutrition or hydration were provided. The HCD liquid solution contained 20% dextrose, a commercial mixture of 2% essential and nonessential amino acids (TrophAmine, B. Braun Medical, Irvine, Calif.), 2 ml trace elements (Trace Elements Injection 4, USP—Pediatric, American Regent Shirley, N.Y.), and 5 ml multivitamins (M.V.I. Pediatric™, Mayne Pharma, Paramus, N.J.). Each liter of HCD contained 30 meq sodium, 20 meq potassium chloride, 15 meq calcium, 10 meq magnesium, and 10 mM phosphate. The bottles were replaced daily with fresh HCD solution. HCD animals (n=5) received HCD only and no additional treatment for 19 days. The HCD+MAR animals (n=15) additionally received 100 mg/kg of Marimastat™ in 0.45% methylcellulose (Sigma-Aldrich Corporation, St. Louis, Mo.) vehicle twice daily via orogastric gavage. The animals were individually weighed every third day and at sacrifice. Mice were anesthetized with 300 μl of 2.5% Avertin (Tribromoethanol, Sigma-Aldrich Corporation, St. Louis, Mo.) by intraperitoneal injection. Approximately 400 μl of blood was collected from each mouse via retro-orbital puncture. The specimens were then placed into serum separator tubes (Becton Dickinson, Franklin Lakes, N.J.), and centrifuged at 4° C. at 8000 rpm for 10 minutes to separate serum. Serum was frozen at −80° C. and delivered to the Clinical Laboratory at Children's Hospital Boston for measurement of aspartate aminotransferase (AST), alanine aminotransferase (ALT), alkaline phosphatase (AP), and total (TB) and direct bilirubin (DB) levels. Furthermore, a fatty acid profile was performed on these samples and TNF-α soluble receptor II levels were determined as described below.

C57BL/6 mice [2] = assay: General observations: survival, stool, body weight, macroscopic liver appearance and weight; assay type: in vivo, mouse
Protocol: Experiments were performed on 5-6 week-old C57BL/6 mice (Jackson Laboratories, Bar Harbor, Me.). The animals, in groups of five, were housed in a barrier room and were acclimated to their environment for at least 72 hours prior to the initiation of each experiment. Animal protocols complied with the NIH Animal Research Advisory Committee guidelines and were approved by the Children's Hospital Boston Animal Care and Use Committee.
Control animals (n=5) received normal chow and water ad libitum. All animals in the experimental groups were fed a fat-free, high carbohydrate liquid diet (HCD) ad libitum placed in one bottle per cage as previously described (3, 62). No additional sources of nutrition or hydration were provided. The HCD liquid solution contained 20% dextrose, a commercial mixture of 2% essential and nonessential amino acids (TrophAmine, B. Braun Medical, Irvine, Calif.), 2 ml trace elements (Trace Elements Injection 4, USP—Pediatric, American Regent Shirley, N.Y.), and 5 ml multivitamins (M.V.I. Pediatric™, Mayne Pharma, Paramus, N.J.). Each liter of HCD contained 30 meq sodium, 20 meq potassium chloride, 15 meq calcium, 10 meq magnesium, and 10 mM phosphate. The bottles were replaced daily with fresh HCD solution. HCD animals (n=5) received HCD only and no additional treatment for 19 days. The HCD+MAR animals (n=15) additionally received 100 mg/kg of Marimastat™ in 0.45% methylcellulose (Sigma-Aldrich Corporation, St. Louis, Mo.) vehicle twice daily via orogastric gavage. The animals were individually weighed every third day and at sacrifice.
We then performed a midline laparotomy to observe, excise, and weigh the liver. Approximately one half of the liver was fixed in 10% formalin at 4° C. overnight, washed with phosphate buffered saline, and then embedded in paraffin. After cutting 5 μm sections, slides were stained at the Department of Pathology, Children's Hospital Boston with H&E to examine cellular architecture and lipid accumulation, and with periodic acid-Schiff (PAS) to identify the presence of glycogen.

## CNC(=O)[C@@H](NC(=O)[C@H](CC(C)C)[C@H](O)C(=O)NO)C(C)(C)C [Marimastat]
C57BL/6 mice [1]; HCD+MAR group compared to HCD-only group
  total bilirubin level: significantly lower
C57BL/6 mice [1]; HCD+MAR group vs HCD-only, P<0.001
  serum alanine amino transferase (ALT) level: lower
C57BL/6 mice [1]; HCD+MAR group, P<0.001
  serum alkaline phosphatase (AP) level: significantly lower
C57BL/6 mice [1]; all 15 mice in HCD+MAR group, P<0.001
  direct bilirubin (DB) level: 0
C57BL/6 mice [2]; 19 day protocol
  survival: All animals survived
C57BL/6 mice [2]; mouse, in vivo
  liver weight: no significant difference
C57BL/6 mice [2]; mouse, in vivo, 100 mg/kg
  stool / bowel integrity: soft stool without gross signs of loss of bowel integrity
